Our source for the EC50 values is patent US12180197B2, “GLP-1R modulating compounds” (Gilead Sciences, Inc., priority 2021, dated 2024).

T1 sequence (P43220 24-463): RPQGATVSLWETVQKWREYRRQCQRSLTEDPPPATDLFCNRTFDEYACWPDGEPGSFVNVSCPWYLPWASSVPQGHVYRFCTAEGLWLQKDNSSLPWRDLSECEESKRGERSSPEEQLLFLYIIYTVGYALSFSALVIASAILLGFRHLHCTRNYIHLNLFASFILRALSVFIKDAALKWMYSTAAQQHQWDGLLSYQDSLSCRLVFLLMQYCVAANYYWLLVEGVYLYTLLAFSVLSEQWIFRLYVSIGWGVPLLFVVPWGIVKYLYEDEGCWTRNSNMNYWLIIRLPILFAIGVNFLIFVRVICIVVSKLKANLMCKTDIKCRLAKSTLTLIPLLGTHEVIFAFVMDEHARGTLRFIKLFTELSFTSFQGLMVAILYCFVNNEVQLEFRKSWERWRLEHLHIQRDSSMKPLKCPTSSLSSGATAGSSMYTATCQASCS

One experiment concerns the target T1, GLP-1R (Homo sapiens, UniProt P43220). As to the kind of experiment: GLP-1R Activation - cAMP Assay 1. The following applies: cAMP increase in CHO cells stably expressing GLP-1R; 30 minutes incubation; 10 point dose response. The class given is cell-based. As to the method: GLP-1R Activation—cAMP Assay 1
GLP-1R activation by a compound of the present disclosure was quantified by measuring cAMP increase in CHO cells stably expressing GLP-1R (MultiSpan product #C1267-1a). The cells were harvested and plated in growth medium (DMEM/F-12 (Corning product #10-090-CV) supplemented with 10% FBS (HyClone product #SH30071-03), penicillin/streptomycin (Corning product #30-002CI) and 10 µg/ml puromycin (Gibco product #A11138-03)) at 1,000 cells/well in a 384-well plate (Greiner product #781080). The cells were then incubated overnight at 37° C., 5% CO2. The next day, the medium was removed and the cells were washed with DPBS (Corning product #21-031-CM) before adding the assay medium (HBSS, Corning product #21-023-CV) with 20 mM Hepes (Gibco product #15630-080) and 0.1% BSA (Rockland Immunochemicals product #BSA-1000)). Following the medium change, the cells were incubated for 1 hour at 37° C., 5% CO2. The tested GLP-1 compound was added to the cells in a 10 point dose response followed by a 30 minutes incubation at 37° C., 5% CO2. cAMP concentration increase was then detected using Cisbio's cAMP Gs Dynamic Kit (product #62AM4PEC) according to the manufacturer's protocol. The response was plotted against the log of the agonist concentration and fitted to a sigmoidal equation to determine the EC50.
`COCCn1c(CN2CCC(c3cccc(OCc4ccc(C#N)c5ccccc45)n3)CC2)nc2ccc(C(=O)O)cc21` [Example 25, 2-((4-(6-((4-cyanonaphthalen-1-yl)methoxy)pyridin-2-yl)piperidin-1-yl)methyl)-1-(2-methoxyethyl)-1H-benzo[d]imidazole-6-carboxylic acid] had an EC50 of 0.0113 µM.

As to `COCCn1c(CN2CCC(c3cccc(OCc4ccc5c(c4)OC(F)(F)O5)n3)CC2)nc2ccc(C(=O)O)cc21` [Example 6, 2-((4-(6-((2,2-difluorobenzo[d][1,3]dioxol-5-yl)methoxy)pyridin-2-yl)piperidin-1-yl)methyl)-1-(2-methoxyethyl)-1H-benzo[d]imidazole-6-carboxylic acid], the EC50 worked out at 0.0105 µM. This EC50 and that of the molecule before are within 1.5-fold of each other.

As for `COCCn1c(CN2CCC(c3cccc(OCc4cccc5[nH]cnc45)n3)CC2)nc2ccc(C(=O)O)cc21` [Example 33, 2-((4-(6-((1H-benzo[d]imidazol-4-yl)methoxy)pyridin-2-yl)piperidin-1-yl)methyl)-1-(2-methoxyethyl)-1H-benzo[d]imidazole-6-carboxylic acid], the EC50 was greater than 10 µM.

With `COCCn1c(CN2CCC(c3cccc(OCc4ccc(-c5ccccc5)cc4)n3)CC2)nc2ccc(C(=O)O)cc21` [Example 12, 2-((4-(6-([1,1′-biphenyl]-4-ylmethoxy)pyridin-2-yl)piperidin-1-yl)methyl)-1-(2-methoxyethyl)-1H-benzo[d]imidazole-6-carboxylic acid], the EC50 amounted to 1.07 µM.

`COCCn1c(CN2CCC(c3cccc(OCc4ccc(Cl)c5occc45)n3)CC2)nc2ccc(C(=O)O)cc21` [Example 31, 2-((4-(6-((7-chlorobenzofuran-4-yl)methoxy)pyridin-2-yl)piperidin-1-yl)methyl)-1-(2-methoxyethyl)-1H-benzo[d]imidazole-6-carboxylic acid]: the EC50 came out at 0.029 µM.

Turning to `COCCn1c(CN2CCC(c3cccc(OCc4cc5cn[nH]c5cc4F)n3)CC2)nc2ccc(C(=O)O)cc21` [Example 39, 2-((4-(6-((6-fluoro-1H-indazol-5-yl)methoxy)pyridin-2-yl)piperidin-1-yl)methyl)-1-(2-methoxyethyl)-1H-benzo[d]imidazole-6-carboxylic acid], the EC50 was greater than 10 µM.

`COCCn1c(CN2CCC(c3cccc(OCc4ccc5cccnc5c4)n3)CC2)nc2ccc(C(=O)O)cc21` [Example 36, 1-(2-methoxyethyl)-2-((4-(6-(quinolin-7-ylmethoxy)pyridin-2-yl)piperidin-1-yl)methyl)-1H-benzo[d]imidazole-6-carboxylic acid] displayed an EC50 of 0.124 µM.

As to `COCCn1c(CN2CCC(c3cccc(OCc4ccc5ncccc5c4)n3)CC2)nc2ccc(C(=O)O)cc21` [Example 3, 1-(2-methoxyethyl)-2-((4-(6-(quinolin-6-ylmethoxy)pyridin-2-yl)piperidin-1-yl)methyl)-1H-benzo[d]imidazole-6-carboxylic acid], the EC50 was 0.0324 µM. This EC50 lies about 3.8-fold lower than the previous one.

For `COCCn1c(CN2CCC(c3cccc(OCc4ccc5nonc5c4)n3)CC2)nc2ccc(C(=O)O)cc21` [Example 27, 2-((4-(6-(benzo[c][1,2,5]oxadiazol-5-ylmethoxy)pyridin-2-yl)piperidin-1-yl)methyl)-1-(2-methoxyethyl)-1H-benzo[d]imidazole-6-carboxylic acid], it took 0.0668 µM to reach a half-maximal effect (EC50). Against the preceding molecule, the EC50 is about 2.1-fold higher.

`COCCn1c(CN2CCC(c3cccc(OCc4cccc(-c5noc(C)n5)c4)n3)CC2)nc2ccc(C(=O)O)cc21` [Example 10, 1-(2-methoxyethyl)-2-((4-(6-((3-(5-methyl-1,2,4-oxadiazol-3-yl)benzyl)oxy)pyridin-2-yl)piperidin-1-yl)methyl)-1H-benzo[d]imidazole-6-carboxylic acid] returned a 50% effective concentration (EC50) of 0.0669 µM.

Consider `COCCn1c(CN2CCC(c3cccc(OCc4ccc5c(c4)OCO5)n3)CC2)nc2ccc(C(=O)O)cc21` [Example 7, 2-((4-(6-(benzo[d][1,3]dioxol-5-ylmethoxy)pyridin-2-yl)piperidin-1-yl)methyl)-1-(2-methoxyethyl)-1H-benzo[d]imidazole-6-carboxylic acid], for which the concentration giving a half-maximal response (EC50) worked out at 4.92 µM.

`COCCn1c(CN2CCC(c3cccc(OCc4cccc5c4cnn5C)n3)CC2)nc2ccc(C(=O)O)cc21` [Example 8, 1-(2-methoxyethyl)-2-((4-(6-((1-methyl-1H-indazol-4-yl)methoxy)pyridin-2-yl)piperidin-1-yl)methyl)-1H-benzo[d]imidazole-6-carboxylic acid] yielded an EC50 of 1.31 µM. This EC50 is about 3.8-fold lower than that of the molecule before.

In another experiment the target is T1, GLP-1R. In words: GLP-1R Activation - cAMP Assay 2. It counts as cell-based. The following applies: cAMP increase in CHO cells stably expressing GLP-1R; pre-spotted agonists; assay buffer or 100% Human Plasma (not given); 30 minutes. As to the method:
GLP-1R Activation—cAMP Assay 2
GLP-1R activation by small molecule agonists is quantified by measuring cAMP increase in CHO cells stably expressing GLP-1R (MultiSpan product #C1267-1a). 50 nL of agonists are pre-spotted in a 10 point dose response onto 384-well plate (Corning product #CL3826) using the Labcyte Echo System. The cells are harvested and plated in assay buffer (HBSS (Corning product #21-023-CV) with 20 mM Hepes (Gibco product #15630-080) and 0.1% BSA (Rockland Immunochemicals product #BSA-1000)) or 100% Human Plasma (Innovative Research product #50-643-396) at 1,000 cells/well, 10 μL/well, onto the pre-spotted plates. The cells are then incubated for 30 minutes at 37° C., 5% CO2. cAMP concentration increase is then detected using Cisbio's cAMP Gs Dynamic Kit (product #62AM4PEC) according to the manufacturer's protocol. The response is plotted against the log of the agonist concentration and fitted to a sigmoidal equation to determine the EC50.
Turning to `COCCn1c(CN2CCC(c3cccc(OCc4ccc(-c5cnn(C(F)F)c5)cc4F)n3)CC2)nc2ccc(C(=O)O)cc21` [Example 16, 2-((4-(6-((4-(1-(difluoromethyl)-1H-pyrazol-4-yl)-2-fluorobenzyl)oxy)pyridin-2-yl)piperidin-1-yl)methyl)-1-(2-methoxyethyl)-1H-benzo[d]imidazole-6-carboxylic acid], the midpoint of the response, the EC50, lay at 0.0118 µM.

The molecule `Cn1cc(-c2ccc(COc3cccc(C4CCN(Cc5nc6ccc(C(=O)O)cc6n5C[C@@H]5CCO5)CC4)n3)c(F)c2)nn1` [Example 18, (S)-2-((4-(6-((2-fluoro-4-(1-methyl-1H-1,2,3-triazol-4-yl)benzyl)oxy)pyridin-2-yl)piperidin-1-yl)methyl)-1-(oxetan-2-ylmethyl)-1H-benzo[d]imidazole-6-carboxylic acid] returned an EC50 of 0.0015 µM. This EC50 is about 7.9-fold lower than that of the molecule before.

`O=C(O)c1ccc2nc(CN3CCC(c4cccc(OCc5ccc(-n6ccnn6)cc5F)n4)CC3)n(C[C@@H]3CCO3)c2c1` [Example 41, (S)-2-((4-(6-((2-fluoro-4-(1H-1,2,3-triazol-1-yl)benzyl)oxy)pyridin-2-yl)piperidin-1-yl)methyl)-1-(oxetan-2-ylmethyl)-1H-benzo[d]imidazole-6-carboxylic acid] showed an EC50 of 0.0003 µM. Against the preceding molecule, the EC50 is about 5-fold lower.

With `O=C(O)c1ccc2nc(CN3CCC(c4cccc(OCc5ccc(-c6cnn(C(F)F)c6)cc5F)n4)CC3)n(C[C@@H]3CCO3)c2c1` [Example 19, (S)-2-((4-(6-((4-(1-(difluoromethyl)-1H-pyrazol-4-yl)-2-fluorobenzyl)oxy)pyridin-2-yl)piperidin-1-yl)methyl)-1-(oxetan-2-ylmethyl)-1H-benzo[d]imidazole-6-carboxylic acid], the EC50 stood at 0.0002 µM.

`O=C(O)c1ccc2nc(CN3CCC(c4cccc(OCc5ccc(-c6cn(C7CC7)nn6)cc5F)n4)CC3)n(C[C@@H]3CCO3)c2c1` [Example 23, (S)-2-((4-(6-((4-(1-cyclopropyl-1H-1,2,3-triazol-4-yl)-2-fluorobenzyl)oxy)pyridin-2-yl)piperidin-1-yl)methyl)-1-(oxetan-2-ylmethyl)-1H-benzo[d]imidazole-6-carboxylic acid] registered an EC50 of 0.0017 µM.

In turn, `O=C(O)c1ccc2nc(CN3CCC(c4cccc(OCc5ccc(-c6cnc(C7CC7)o6)cc5F)n4)CC3)n(C[C@@H]3CCO3)c2c1` [Example 20, (S)-2-((4-(6-((4-(2-cyclopropyloxazol-5-yl)-2-fluorobenzyl)oxy)pyridin-2-yl)piperidin-1-yl)methyl)-1-(oxetan-2-ylmethyl)-1H-benzo[d]imidazole-6-carboxylic acid] showed an EC50 of 0.0019 µM.

As to `O=C(O)c1ccc2nc(CN3CCC(c4cccc(OCc5ccc(-c6cn(C7COC7)nn6)cc5F)n4)CC3)n(C[C@@H]3CCO3)c2c1` [Example 24, (S)-2-((4-(6-((2-fluoro-4-(1-(oxetan-3-yl)-1H-1,2,3-triazol-4-yl)benzyl)oxy)pyridin-2-yl)piperidin-1-yl)methyl)-1-(oxetan-2-ylmethyl)-1H-benzo[d]imidazole-6-carboxylic acid], the EC50 worked out at 0.0017 µM.

The molecule `Cn1cc(-c2ccc(COc3cccc(C4CCN(Cc5nc6ccc(C(=O)O)cc6n5C[C@@H]5CCO5)CC4)n3)c(F)c2)cn1` [Example 15, 2-[[4-[6-[[2-fluoro-4-(1-methylpyrazol-4-yl)phenyl]methoxy]-2-pyridyl]-1-piperidyl]methyl]-3-[[(2S)-oxetan-2-yl]methyl]benzimidazole-5-carboxylic acid] displayed an EC50 of 0.0005 µM.

`Cn1cc(C#Cc2ccc(COc3cccc(C4CCN(Cc5nc6ccc(C(=O)O)cc6n5C[C@@H]5CCO5)CC4)n3)c(F)c2)cn1` [Example 22, 2-[[4-[6-[[2-fluoro-4-[2-(1-methylpyrazol-4-yl)ethynyl]phenyl]methoxy]-2-pyridyl]-1-piperidyl]methyl]-3-[[(2S)-oxetan-2-yl]methyl]benzimidazole-5-carboxylic acid] registered an EC50 of 0.0031 µM.
